Results published in patent US20030175678A1, “Methods for identifying genes regulating desired cell phenotypes” (priority 2001, published 2003).

Assays:
Type in all cases: cell-based
taxadiene synthase = assay: PCR of taxadiene synthase in Taxus baccata callus cultures; settings: callus harvested 24 and 48 hours after treatment, 20-25 PCR cycles
Method: Callus was harvested 24 and 48 hours after treatment. An untreated control was also harvested. Samples (500 mg) were frozen in liquid nitrogen and ground to a fine powder. RNA was prepared with an RNEASY™ kit (Qiagen, Valencia, Calif.) as described above.
RNA samples (1.75 μg) from 24 hours post-treatment cultures of Taxus baccata were reverse transcribed using an OMNISCRIPT™ RT kit (Qiagen) with an oligo-dT12-18 primer (Sigma-Aldrich Company, Poole, Dorset, UK). Aliquots (≡0.175 μg RNA) were subject to PCR using a Taq PCR Master Mix kit (Qiagen). Primers were designed from conserved regions of the taxadiene synthases from Taxus chinensis and Taxus brevifolia, and validated by amplification of DNA from Taxus baccata. PCR was carried out at an annealing temperature of 50° C. for 30′; extension was for 1 min at 72° C. Samples were taken after 15, 20, 25, and 30 cycles and run on an agarose gel (FIG. 13). After 20 cycles, a band of the expected size is present in the treated samples (slightly more in the 24 hour harvest) but not in the control.

[1] = tested on: C. acinaciformis suspension culture; assay: Effect of methyl jasmonate on catechin accumulation in Crassula acinaciformis suspension culture; settings: M33 medium, added on day 7, by day 16
Method: Catechin derivative profiles in the C. acinaciformis suspension culture were obtained from incubations in 250 mL conical flasks containing either 100 mL of M62 growth medium or 100 mL of a secondary metabolite production medium M33 (Murashige and Skoog (1962); modified to contain 5% sucrose and no hormones) inoculated with 40 mL of 21 day old suspension culture. The cultures were incubated under low light conditions (approximately 30 lux) at 25° C. […] 10 mL culture samples were taken at regular intervals for 16 days following the day of subculture to M33 medium. All culture samples were centrifuged for five minutes at 4000 rpm, and the cell residue was freeze-dried. Extraction, sample preparation, and HPLC analysis were performed as described in Example 1.

[2] = tested on: C. barkleyi suspension culture; assay: Differential induction of catechin accumulation in Crassula barkleyi suspension culture; settings: B49 medium, treated seven days after inoculation, sampled for 17 days
Method: Differential induction of catechin derivatives in the C. barkleyi suspension culture was performed in 250 mL conical flasks containing 100 mL of a secondary metabolite production medium B49 (Gamborg's B5, with 5% sucrose, and no hormones), inoculated with 16 mL of 14 day old suspension culture. The cultures were incubated under low light conditions (approximately 30 lux) at 25° C. for seven days after inoculation. Cultures were then treated using one of each of the following protocols (untreated cultures were also maintained as controls):
(2) Autoclaved aqueous 2,4-D (1 mg/L final concentration) was added;
(4) Filter-sterilized aqueous DL-phenylalanine (200 mg/L) was added;
(6) Filter-sterilized aqueous zeatin (10 μM) was added;
(7) Filter-sterilized aqueous 1-aminocyclopropane-1-carboxylic acid (10 mg/L final concentration) was added;
(8) Filter-sterilized 24-epibrassinolide (1 mg/L final concentration) was added;
(9) Incubation at a temperature of 16° C.; or (10) High light regime (approximately 160 lux).
Ten milliliter culture samples were taken at regular intervals for 17 days following the day of subculture to B49 medium. All culture samples were centrifuged for five minutes at 4000 rpm, and the cell residue was freeze-dried. Extraction, sample preparation, and HPLC analysis were performed as described in Example 1.

[3] = tested on: S. tectorum suspension culture; assay: Catechin profiling in Sempervivum tectorum suspension culture; settings: B49 medium, added on day 7
Method: Catechin derivative profiles in the S. tectorum suspension culture were obtained from incubations in 250 mL conical flasks containing either 100 mL of B88 growth medium or 100 mL of a secondary metabolite production medium B49 (Gamborg's B5 modified to contain 5% sucrose and no hormones) inoculated with 40 mL of 21 day old suspension culture. The cultures were incubated under low light conditions (approximately 30 lux) at 25° C.
Ten milliliters of culture samples were taken at regular intervals for 16 days following the day of subculture to B88 or B49 medium. All culture samples were centrifuged for five minutes at 4000 rpm and the supernatant liquid was removed and frozen. The cell residue was freeze-dried. Extraction, sample preparation, and HPLC analysis were performed as described in Example 1.

[4] = tested on: Ajuga reptans suspension culture; assay: Differential induction of diterpenes (Compound 6) in Ajuga reptans suspension culture; settings: B49 production medium, treated day 7, harvested after a further seven days, n = 3
Method: Differential induction of diterpenoids in the Ajuga reptans suspension culture was performed by inoculating 500 mL conical flasks containing 190 mL of a secondary metabolite production medium B49 (Gamborg's B5, 5% sucrose, no hormones), with 70 mL of 14 day old suspension culture. The culture was incubated at 25° C. in continuous low light and shaken at 140 rpm. Cultures were grown for seven days (25° C. in continuous low light and shaken at 140 rpm) and then dispensed as 5 mL aliquots to 6-well plates (Bibby Sterilin Ltd, Stone, UK). Cultures were then treated using one of the following protocols:
Triplicate samples were set up for each treatment. Cultures were incubated for a further seven days before harvest for extraction and analysis of diterpenoids.
Cultures were harvested by freezing entire 6-well plates at −20° C. and then freeze-drying cultures in situ. […] After standing for one hour 500 μL of filtered methanol extract was removed and immediately analyzed.
HPLC analysis was carried out using an Xterra RP 18 column (dimensions 3×150 mm with 5 μm packing) using an isocratic solvent system of water (two volumes): acetonitrile (three volumes) to which has been added 0.1% acetic acid. […] The eluate was monitored by UV absorption. The principal diterpene metabolite (Compound 6) has UV absorption maxima at 230, 290 and 340 nm and can be sensitively monitored at any of these wavelengths. […]

`CC/C=C\CC1C(=O)CCC1CC(=O)OC` (centres unmarked) [methyl jasmonate] was tested, and the “induction of taxadiene cyclase” value (taxadiene synthase) was “specific induction of the taxadiene cyclase”, the catechin level [1] was “approximate doubling of catechin level” and the “catechin biosynthesis and EGCG accumulation” value [2] was “induced catechin biosynthesis and EGCG accumulation”. The catechin level [3] was “no further increase in catechin level” and the “Compound 6 (mg/L culture) Mean” value [4] was 9.52 mg/L culture.
